The supplement of paper PMC10307832

Assays:
Assay in all cases: relative viability (nuclei count vs DMSO), 5 days (fraction); higher = more cells survive
17-AAG = compound: C=CCNC1=C2C[C@@H](C)C[C@H](OC)[C@H](O)[C@@H](C)/C=C(\C)[C@H](OC(N)=O)[C@@H](OC)/C=C\C=C(/C)C(=O)NC(=CC1=O)C2=O [17-AAG]
How it was run: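 Viability here means nuclei in treated wells divided by nuclei in vehicle wells, reported as the median across plates. Only plates with control CV below 25% and at least one doubling passed. Lung cancer cell lines in 1536-well plates were exposed to five √10-spaced library-drug doses for 5 days and counted from 4× Hoechst images in MetaXpress.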

17-AAG + Foretinib = compound: C=CCNC1=C2C[C@@H](C)C[C@H](OC)[C@H](O)[C@@H](C)/C=C(\C)[C@H](OC(N)=O)[C@@H](OC)/C=C\C=C(/C)C(=O)NC(=CC1=O)C2=O [17-AAG] + COc1cc2c(Oc3ccc(NC(=O)C4(C(=O)Nc5ccc(F)cc5)CC4)cc3F)ccnc2cc1OCCCN1CCOCC1 [Foretinib] (partner 0.25 µM)
How it was run: (§1)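 One day after seeding in 1536-well plates, lung cancer cell lines were dosed by pin tool. Dosing was either single-drug or a fixed anchor-drug dose plus five library-drug doses (not always all listed) in √10 steps. After 5 days, nuclei were stained in one fix-and-stain step and counted on 4× images, and relative viability is the nuclei count of treated wells over that of vehicle wells, given as the median of duplicate plates.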

17-AAG + Palbociclib = compound: C=CCNC1=C2C[C@@H](C)C[C@H](OC)[C@H](O)[C@@H](C)/C=C(\C)[C@H](OC(N)=O)[C@@H](OC)/C=C\C=C(/C)C(=O)NC(=CC1=O)C2=O [17-AAG] + CC(=O)c1c(C)c2cnc(Nc3ccc(N4CCNCC4)cn3)nc2n(C2CCCC2)c1=O [Palbociclib] (partner 0.5 µM)
How it was run: as §1

17-AAG + OSI-027 = compound: C=CCNC1=C2C[C@@H](C)C[C@H](OC)[C@H](O)[C@@H](C)/C=C(\C)[C@H](OC(N)=O)[C@@H](OC)/C=C\C=C(/C)C(=O)NC(=CC1=O)C2=O [17-AAG] + COc1cccc2cc(-c3nc([C@H]4CC[C@H](C(=O)O)CC4)n4ncnc(N)c34)[nH]c12 [OSI-027] (partner 0.5 µM)
How it was run: as §1

| Cell Line | relative viability (17-AAG; 0.00128 µM) | relative viability (17-AAG; 0.004048 µM) | relative viability (17-AAG; 0.0128 µM) | relative viability (17-AAG; 0.04048 µM) | relative viability (17-AAG; 0.128 µM) | relative viability (17-AAG + Foretinib; first compound 0.00128 µM) | relative viability (17-AAG + Foretinib; first compound 0.004048 µM) | relative viability (17-AAG + Foretinib; first compound 0.0128 µM) | relative viability (17-AAG + Foretinib; first compound 0.04048 µM) | relative viability (17-AAG + Foretinib; first compound 0.128 µM) | relative viability (17-AAG + Palbociclib; first compound 0.00128 µM) | relative viability (17-AAG + Palbociclib; first compound 0.004048 µM) | relative viability (17-AAG + Palbociclib; first compound 0.0128 µM) | relative viability (17-AAG + Palbociclib; first compound 0.04048 µM) | relative viability (17-AAG + Palbociclib; first compound 0.128 µM) | relative viability (17-AAG + OSI-027; first compound 0.00128 µM) | relative viability (17-AAG + OSI-027; first compound 0.004048 µM) | relative viability (17-AAG + OSI-027; first compound 0.0128 µM) | relative viability (17-AAG + OSI-027; first compound 0.04048 µM) | relative viability (17-AAG + OSI-027; first compound 0.128 µM) |
| --- | --- | --- | --- | --- | --- | --- | --- | --- | --- | --- | --- | --- | --- | --- | --- | --- | --- | --- | --- | --- |
| 201T | 0.953 | 0.976 | 0.936 | 0.425 | 0.316 | 1.11 | 1.06 | 0.503 | 0.194 | 0.175 | 0.364 | 0.351 | 0.353 | 0.372 | 0.35 | 0.823 | 1.01 | 0.443 | 0.165 | 0.165 |
| A-427 | 0.967 | 1.01 | 0.95 | 0.62 | 0.265 | 1.11 | 0.983 | 1.05 | 1.2 | 0.847 | 0.554 | 0.506 | 0.54 | 0.354 | 0.291 | 0.484 | 0.502 | 0.502 | 0.343 | 0.181 |
| ABC-1 | 0.916 | 0.978 | 1.09 | 0.892 | 0.708 | 0.9 | 0.882 | 1.08 | 1.05 | 0.432 | 0.701 | 0.805 | 0.772 | 0.79 | 0.602 | 0.393 | 0.493 | 0.56 | 0.508 | 0.458 |
| BEN | 1.01 | 1.1 | 1.11 | 0.829 | 0.36 | 0.626 | 0.767 | 0.649 | 0.517 | 0.411 | 0.466 | 0.484 | 0.54 | 0.491 | 0.337 | 0.337 | 0.307 | 0.256 | 0.232 | 0.2 |
| CAL-12T | 0.947 | 1.02 | 0.948 | 0.625 | 0.24 | 1.12 | 1.07 | 1.08 | 0.608 | 0.202 | 0.499 | 0.364 | 0.486 | 0.191 | 0.167 | 0.564 | 0.807 | 0.713 | 0.411 | 0.128 |
| COR-L23 | 0.987 | 1.02 | 1.01 | 0.668 | 0.147 | 0.938 | 0.943 | 0.846 | 0.854 | 0.143 | 0.278 | 0.338 | 0.336 | 0.198 | 0.0966 | 0.853 | 0.786 | 0.817 | 0.661 | 0.0974 |
| COR-L 105 | 0.917 | 0.966 | 1 | 0.488 | 0.547 | 0.965 | 1 | 0.805 | 0.715 | 0.31 | 0.431 | 0.389 | 0.406 | 0.356 | 0.384 | 0.719 | 0.829 | 0.704 | 0.351 | 0.306 |
| Calu-6 | 1.02 | 0.984 | 0.946 | 0.3 | 0.148 | 0.833 | 0.899 | 0.754 | 0.249 | 0.121 |  |  |  |  |  |  |  |  |  |  |
| ChaGo-K-1 | 0.961 | 0.966 | 0.877 | 0.463 | 0.307 | 0.916 | 0.829 | 0.851 | 0.861 | 0.313 | 0.956 | 0.922 | 0.768 | 0.938 | 0.703 | 0.514 | 0.71 | 0.51 | 0.24 | 0.16 |
| EBC-1 | 1.02 | 0.882 | 0.166 | 0.15 | 0.132 | 0.101 | 0.13 | 0.138 | 0.104 | 0.0946 |  |  |  |  |  |  |  |  |  |  |
| EKVX | 1 | 1.02 | 1.05 | 0.261 | 0.229 | 0.895 | 0.805 | 0.175 | 0.192 | 0.131 | 0.357 | 0.391 | 0.363 | 0.152 | 0.127 | 0.77 | 0.649 | 0.746 | 0.177 | 0.152 |
| EMC-BAC-2 | 1.13 | 0.986 | 0.889 | 0.396 | 0.362 | 1.04 | 1.05 | 1.09 | 0.353 | 0.316 | 0.544 | 0.525 | 0.521 | 0.462 | 0.4 | 0.464 | 0.486 | 0.438 | 0.3 | 0.216 |
| EPLC-272H | 1.02 | 0.968 | 0.663 | 0.159 | 0.104 | 0.704 | 0.412 | 0.772 | 0.216 | 0.125 | 0.34 | 0.323 | 0.348 | 0.147 | 0.0684 | 0.275 | 0.277 | 0.247 | 0.145 | 0.112 |
| H3255 | 0.995 | 0.973 | 0.948 | 0.313 | 0.243 | 0.943 | 0.874 | 0.819 | 0.252 | 0.249 | 0.306 | 0.292 | 0.299 | 0.247 | 0.26 | 0.569 | 0.576 | 0.49 | 0.274 | 0.268 |
| HARA | 0.952 | 1.12 | 1 | 0.474 | 0.183 | 0.884 | 0.911 | 0.865 | 0.792 | 0.455 | 0.248 | 0.27 | 0.261 | 0.263 | 0.215 | 0.503 | 0.56 | 0.489 | 0.151 | 0.0613 |
| HCC-15 | 0.94 | 0.923 | 0.557 | 0.14 | 0.122 | 0.907 | 0.718 | 0.29 | 0.137 | 0.12 | 0.693 | 0.687 | 0.429 | 0.31 | 0.149 | 0.628 | 0.54 | 0.179 | 0.107 | 0.106 |
